Experimental data from patent publication US20140356287A1, “PLOD2 as a Target of Intervention for Sarcoma Metastasis” (The Trustees of the University of Pennsylvania, priority 2013, published 2014).
Entries after “also recorded” stand apart in the source; their conditions may differ.

System: KIA cells
Experiment: Subcutaneous KIA cell allograft in nude mice (primary tumor, lung metastasis, collagen)
Format: in vivo
Conditions: 1 mg/kg or 3 mg/kg intraperitoneal every other day for 3 weeks
From the text: Generation of Hif1α^fl/fl mice (Ryan et al., 2000, Cancer Res 60(15):4010-5) and LSL-Kras^G12D/+Trp53^fl/fl mice has been previously described (Kirsch et al., 2007, Nat Med 13(8):992-7). These mice were crossed to create the LSL-Kras^G12D/+Trp53^fl/flHif1a^fl/fl animals. Soft tissue sarcomas were generated by intramuscular injection of a calcium phosphate precipitate of Ad-Cre (Gene Transfer Vector Core, University of Iowa). For transplant tumors 1×106 KIA (derived from LSL-Kras^G12D/+[…] tumors) were injected subcutaneously into the flanks of nu/nu mice (Charles River Laboratories). In each experiment 10 mice per experimental group were used with each mouse bearing two subcutaneous tumors. Tumors developed after 3-5 days, were monitored every other day, and animals were euthanized after 20-30 days. For in vivo lung metastasis analysis lung tissues were removed, and sections were stained with hematoxylin and eosin. Images were acquired using a Nikon SMZ800 stereoscope with a Nikon 1200F digital camera and Nikon Act-1 software. The ratio of total metastatic sarcoma foci to total lung area (% tumor burden) was determined using ImagePro 6.3 software (Media Cybernetics Inc.). Additionally, the percent of animals in the entire cohort with metastatic foci was evaluated along with total number of metastatic foci per experiment and the averae number of sarcoma lung foci per lung in each experiment. For Minoxidil injections, allografts and drug treatments were started simultaneously. Mice bearing subcutaneous KIA tumors on each flank were intraperitoneal injected with PBS, 1 mg/kg Minoxidil, or 3 mg/kg Minoxidil every other day unless the animals were euthanized, the tumors and lungs removed.
Immunohistochemistry of tissue sections with antibodies to HIF1α (Abcam) and Lectin (Vector Labs) was performed using enzymatic Avidin-Biotin Complex (ABC)-diaminobenzidine (DAB) staining (Vector Labs). Nuclei were counterstained with hematoxylin. […] Collagen was quantified using Image-Pro software. […]

- overall animal health/weight: no effect; also recorded: unaffected
SMILES: Nc1cc(N2CCCCC2)nc(N)[n+]1[O-] [Minoxidil]
- primary tumor volume: no effect
- tumor weight (mass): no effect
